“Also recorded” adds a separate entry of the source. Where two headings read alike, the source gives them in different places.

The subject of data set [1] is Plasmodium falciparum 3D7 (chloroquine-sensitive). Nature of the data set: Antimalarial assay (IC50 determination), asexual blood stage, SYBR green. Type of data set: cell-based. To be noted: Plasmodium falciparum. The protocol: (§1) Parasite lines used in the study were P. falciparum 3D7 (Pf3D7 Chloroquine-sensitive) and Plasmodium falciparum K1 (PfK1 Chloroquine-resistant) sourced from the Malaria Research and Reference Reagent Resource Center (MR4), ATCC, Manassas, VA, USA. FNDR-10132 was tested against a cross-resistance panel at Swiss TPH, Allschwil, Switzerland.
(§2) As per the modified protocol stated by Trager and Jensen, 1976, Plasmodium falciparum parasite lines (Pf3D7 and PfK1) were cultured. Plasmodium strains were maintained in RPMI-1640 medium at 3–5% hematocrit supplemented with 0.2% w/v glucose, 0.5% w/v AlbuMaxII, 0.2% w/v NaHCO3, and 30 μg/mL gentamycin, and, additionally, 15 μM hypoxanthine was added and incubated at 37 °C with 5% O2, 5% CO2, and 90% N2. After 24 h, the medium was changed. After attaining high parasitemia (6–8% mature stage parasite), the culture was sub-passaged with fresh human RBCs.
(§3) All tested compounds were dissolved in a DMSO solvent and a prepared stock solution of 10 mM. The reference drug, Chloroquine diphosphate, was dissolved in CRPMI. Working solutions were made from stock solution after diluting in a CRPMI medium during the experiment. The maximum concentration of DMSO used in this study was <1%. It had no parasiticidal effect.
(§4) The P. falciparum (0.8–1% parasitemia and 1% hematocrit) synchronous culture was exposed for 72 h (at 37 °C, 5% O2, 5% CO2, and 90% N2) to the serially diluted compound in 96-well plates. A total of 100 µL of RBCs lytic buffer (5 mM EDTA, 20 mM Tris pH 7.5, 0.08% Triton X-100, and 0.008% Saponin) containing the SYBR green 1-X final concentration was distributed to each well and incubated for one hour at room temp in the dark. The plates were read under a fluorescence reader at an excitation of 485 ± 20 nm and emission of 535 ± 25 nm. The IC50 values were calculated based on the DNA content of the parasite relative to its control. An inhibitory concentration of 50% (IC50) was determined using the MS-EXEL template.

For data set [2], the system named is Plasmodium falciparum K1 (chloroquine-resistant). Described as above. Type of data set: cell-based. To be noted: read-out: ABS Assay Pf (K1). The procedure: as §1, §2, §3, §4
Data set [3] relates to P. falciparum female gametocytes. The experiment in a line: P. falciparum dual gamete formation assay (PfDGFA), female. To be noted: Plasmodium falciparum, read-out: DGF Assay—Inhibition, female. The class given is cell-based. The procedure:
The FNDR-10132 was evaluated in a male and female gametocyte functional viability assay by following the procedure described in Ruecker et al..

Data set [4] relates to Dd2 DDD107498 (PfeEF2 Y186N). The experiment in a line: Cross-resistance panel, Dd2 DDD107498. Type of data set: cell-based, Plasmodium falciparum. The procedure:
as §1

In data set [5] the test system is Dd2 390048 (Pfpi4k S743T). The experiment in a line: Cross-resistance panel, Dd2 390048. The class given is cell-based, Plasmodium falciparum. The protocol: as §1
Data set [6] deals with Dd2 GNF156 (Pfcarl Ile1139Lys). The experiment in a line: Cross-resistance panel, Dd2 GNF156. Type of data set: cell-based, Plasmodium falciparum. The procedure: as §1
Data set [7] concerns resistant strains of P. falciparum. The experiment in a line: Cross-resistance panel, all mutants/strains tested. To be noted: Plasmodium falciparum, read-out: antimalarial activity range against all mutants/strains tested. The class given is cell-based. The procedure: as §1
The nature of data set [8]: Body weight of mice during treatment. Type of data set: in vivo, Swiss mice. To be noted: 100 mg/kg oral. The source says: One crucial aspect of evaluating potential malaria treatments is assessing their safety and tolerance in the host organism. In this regard, the present study closely monitored the body weights of the mice throughout the drug treatment.

One may read the inhibition as how much of the control response was suppressed. For `CCCCCCc1ccc(-c2cc(=O)c3c(O)c(O)c(O)cc3o2)cc1` [FNDR-10132], the IC50 in data set [1] (3D7, 72 h, P. falciparum 3D7, 72 h exposure, read-out: IC50) worked out at 60 nM; in data set [1] (3D7, chloroquine-sensitive 3D7, read-out: ABS Assay Pf (3D7)), 60 nM; in data set [2] it was 177 nM; in data set [4] (Plasmodium falciparum, DD2), 211 nM; in data set [5] (Plasmodium falciparum, DD2) it was 290 nM; in data set [6] (Plasmodium falciparum, DD2) it was 292 nM. Also, in data set [7], the IC50 was in the range of 200 to 300 nM. Further, in data set [3], the inhibition at 1 µM came out at 9.5%. For the same molecule, the figures for the “Fold shift IC50 rel. Dd2” value in data set [4] (strain Dd2 DDD107498), in data set [5] (strain Dd2 390048) and in data set [6] (strain Dd2 GNF156) were 0.6, 0.9 and 0.9, respectively. Moreover, in data set [8], the “Weight of Mice Day after the Last Dose of Treatment (Day 4)” value is given as 27.5 gm. Besides, the “Weight of Mice at the Initiation of Treatment (Day 0)” value in data set [8] came to 25 gm. Further, the “weight loss / tolerability (in words)” value in data set [8] is given as “no significant weight loss; also recorded: well-tolerated”. For the same molecule, in data set [8] (Day 0 to Day 4), the “Weight Gain” value amounted to 2.5 gm.

Source of the values: article PMC10610289, “Novel Baicalein-Derived Inhibitors of Plasmodium falciparum” (Pathogens, 2023).
